Results taken from patent US10570121B2, “Substituted dihydroisoquinolinone compounds” (priority 2014, dated 2020).
Like-named read-outs stand apart in the source and are kept apart here.

What was measured:
WT EZH2 = WT EZH2 (Homo sapiens (Human), UniProt Q15910); experiment: WT EZH2 nucleosome assay (10X SAM, high SAM conditions); format: biochemical; settings: 15 uM SAM, Ki app from competitive inhibition fit
Protocol: (§1) The genes for EZH2, EED, SUZ12, and RBBP4 proteins were cloned into pBacPAK9 vectors (Clontech). RBBP4 was FLAG tagged on the N-terminal end. The baculovirus expressions of these proteins were used to co-infect SF9 insect cells. Insect cell pellets were lysed in a buffer containing 25 mM Tris pH8.0, 300 mM NaCl, 0.5 mM TCEP, complete EDTA-free protease inhibitor (Roche), 0.1% NP-40. The supernatant from the lysate was incubated with FLAG® M2 antibody resin (Sigma). The resin was washed on the chromatography column and eluted with 0.2 mg/ml FLAG peptide. The elute was incubated with omnicleave nucleases (Epicentre Technologies) at 4° C. overnight, then concentrated and loaded onto a Superdex 200 (GE Healthcare) column. The Superdex 200 column was eluted with 25 mM Tris pH8.0, 150 mM NaCl, 0.5 mM TCEP. Fractions containing the PRC2 complex were pooled.
(§2) A. Compound preparation • 1.
(§3) B. Reagent preparation • 1. […] Dilute TCA to 20% in DI water
(§4) C. Enzyme reaction • 1. […] Some compounds were tested under high SAM conditions.
(§5) D. Data analysis • 1. IC50 values were determined by fitting the data to a 4-parameter IC50 equation using proprietary curve fitting software. • 2. For compounds tested under high SAM conditions, Ki^app values were obtained by fitting the dose response curve to a model for competitive inhibition using proprietary curve fitting software. Preparation of HeLa Oligonucleosomes: Reagents • Cell Pellet: 15 L HeLa S3 (Accelgen)+6 L HeLa S3 (in house) • Mnase (Worthington Biochemicals) Equipment • SW-28 Rotor • Dounce Homogenizer/B Pestle Buffers • Lysis: 20 mM Hepes pH 7.5, 0.25M Sucrose, 3 mM MgCl2, 0.5% Nonidet P-40, 0.5 mM TCEP, 1 Roche Protease Tablet • B: 20 mM Hepes pH7.5, 3 mM MgCl2, 0.5 mM EDTA, 0.5 mM TCEP, 1 Roche Protease Tablet • MSB: 20 mM Hepes pH7.5, 0.4 M NaCl, 1 mM EDTA, 5% v/v Glycerol, 0.5 mM TCEP, 0.2 mM PMSF • LSB: 20 mM Hepes pH7.5, 0.1M NaCl, 1 mM EDTA, 0.5 mM TCEP, 0.2 mM PMSF • NG: 20 mM Hepes pH7.5, 1 mM EDTA, 0.4 m NaCl, 0.2 mM PMSF, 0.5 mM TCEP • Storage: 20 mM Hepes pH7.5, 1 mM EDTA, 10% Glycerol, 0.2 mM PMSF, 0.5 mM TCEP Protocol

EZH2 Mutant Y641N = EZH2 Mutant Y641N (Homo sapiens (Human), UniProt Q15910, Y641N); experiment: EZH2 Mutant Y641N nucleosome assay; format: biochemical; settings: PRC2 4-protein complex 6 nM, 1.5 μM SAM, HeLa oligonucleosomes
EZH2 Mutant Y641N, sequence (Q15910 whole entry Y641N, looked up): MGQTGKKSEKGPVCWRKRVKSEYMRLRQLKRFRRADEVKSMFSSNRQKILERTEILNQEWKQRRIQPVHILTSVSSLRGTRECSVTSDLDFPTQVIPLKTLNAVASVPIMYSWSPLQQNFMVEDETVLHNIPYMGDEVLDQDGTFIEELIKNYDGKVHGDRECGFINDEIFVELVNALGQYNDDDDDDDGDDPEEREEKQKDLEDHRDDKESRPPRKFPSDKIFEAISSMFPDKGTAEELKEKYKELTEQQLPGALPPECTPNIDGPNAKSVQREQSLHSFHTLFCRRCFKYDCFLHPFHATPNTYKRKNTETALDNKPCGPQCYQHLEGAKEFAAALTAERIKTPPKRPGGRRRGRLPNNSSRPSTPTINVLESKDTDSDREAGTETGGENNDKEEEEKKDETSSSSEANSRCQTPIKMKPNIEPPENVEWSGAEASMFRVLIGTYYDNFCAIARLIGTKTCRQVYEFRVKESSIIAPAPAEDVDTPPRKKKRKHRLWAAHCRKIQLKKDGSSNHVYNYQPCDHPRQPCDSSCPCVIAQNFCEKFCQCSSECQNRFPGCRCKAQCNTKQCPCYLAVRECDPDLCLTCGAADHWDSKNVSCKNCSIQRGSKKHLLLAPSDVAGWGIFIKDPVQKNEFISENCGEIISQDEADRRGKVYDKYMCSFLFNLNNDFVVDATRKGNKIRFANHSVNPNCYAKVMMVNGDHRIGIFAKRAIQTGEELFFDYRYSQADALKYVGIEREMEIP
EZH2 Mutant Y641N, sequence (O75530 whole entry partner, looked up): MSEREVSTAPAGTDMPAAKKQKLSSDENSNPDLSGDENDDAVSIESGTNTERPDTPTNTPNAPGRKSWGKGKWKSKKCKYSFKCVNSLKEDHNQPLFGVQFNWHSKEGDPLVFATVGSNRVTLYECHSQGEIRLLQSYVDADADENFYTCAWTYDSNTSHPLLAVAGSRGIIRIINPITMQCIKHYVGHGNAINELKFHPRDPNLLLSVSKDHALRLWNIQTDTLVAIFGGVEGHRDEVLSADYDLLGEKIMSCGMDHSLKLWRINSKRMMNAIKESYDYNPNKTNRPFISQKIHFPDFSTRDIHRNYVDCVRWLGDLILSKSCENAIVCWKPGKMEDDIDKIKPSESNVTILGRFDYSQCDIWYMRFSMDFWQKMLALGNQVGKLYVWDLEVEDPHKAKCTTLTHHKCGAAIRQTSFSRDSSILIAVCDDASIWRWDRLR
EZH2 Mutant Y641N, sequence (Q15022 whole entry partner, looked up): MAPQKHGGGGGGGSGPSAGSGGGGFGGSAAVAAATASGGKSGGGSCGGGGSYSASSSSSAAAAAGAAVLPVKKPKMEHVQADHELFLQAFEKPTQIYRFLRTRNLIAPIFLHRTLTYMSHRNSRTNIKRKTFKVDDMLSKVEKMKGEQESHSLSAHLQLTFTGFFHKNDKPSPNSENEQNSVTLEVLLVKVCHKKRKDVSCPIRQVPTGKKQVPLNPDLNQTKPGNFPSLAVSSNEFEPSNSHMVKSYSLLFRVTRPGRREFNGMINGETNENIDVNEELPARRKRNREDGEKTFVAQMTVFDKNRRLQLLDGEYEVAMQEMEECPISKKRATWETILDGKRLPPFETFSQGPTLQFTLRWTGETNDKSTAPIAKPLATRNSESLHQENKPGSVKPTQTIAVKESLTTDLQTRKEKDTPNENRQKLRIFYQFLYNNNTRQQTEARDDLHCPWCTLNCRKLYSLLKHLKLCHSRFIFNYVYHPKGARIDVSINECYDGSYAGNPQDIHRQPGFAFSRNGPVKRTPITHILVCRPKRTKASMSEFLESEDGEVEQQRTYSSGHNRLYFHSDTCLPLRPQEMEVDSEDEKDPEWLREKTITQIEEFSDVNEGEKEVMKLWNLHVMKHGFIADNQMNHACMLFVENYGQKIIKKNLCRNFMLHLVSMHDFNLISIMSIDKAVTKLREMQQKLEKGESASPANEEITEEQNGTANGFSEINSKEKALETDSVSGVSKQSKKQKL
EZH2 Mutant Y641N, sequence (Q09028 whole entry partner, looked up): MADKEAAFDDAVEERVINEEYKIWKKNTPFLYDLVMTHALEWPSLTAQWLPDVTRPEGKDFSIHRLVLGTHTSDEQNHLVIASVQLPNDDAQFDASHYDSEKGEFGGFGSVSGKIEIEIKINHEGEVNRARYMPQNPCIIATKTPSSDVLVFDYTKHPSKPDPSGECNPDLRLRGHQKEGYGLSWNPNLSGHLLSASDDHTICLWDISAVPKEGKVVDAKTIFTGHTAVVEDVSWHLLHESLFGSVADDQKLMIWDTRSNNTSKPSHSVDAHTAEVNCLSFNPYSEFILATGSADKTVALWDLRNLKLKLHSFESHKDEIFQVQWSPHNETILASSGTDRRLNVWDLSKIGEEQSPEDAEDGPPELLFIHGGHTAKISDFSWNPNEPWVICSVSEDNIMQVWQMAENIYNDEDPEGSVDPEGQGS
Protocol: as §1, §2, §3, §4, §5

[1] = read-out: WT EZH2 Nucleosome assay (10X SAM) Ki
[2] = read-out: EZH2 Mutant Y641N Nucleosome assay IC50
[3] = WT EZH2 Nucleosome assay (10X SAM) Ki (μM)
[4] = EZH2 Mutant Y641N Nucleosome assay IC50 (μM)

WT EZH2, sequence (Q15910 whole entry, looked up): as the sequence (Q15910 whole entry Y641N, looked up) above, with N641Y counted along it
WT EZH2, sequence (O75530 whole entry partner, looked up): as the sequence (O75530 whole entry partner, looked up) above
WT EZH2, sequence (Q15022 whole entry partner, looked up): as the sequence (Q15022 whole entry partner, looked up) above
WT EZH2, sequence (Q09028 whole entry partner, looked up): as the sequence (Q09028 whole entry partner, looked up) above

| Structure (SMILES) | Ki (WT EZH2; [1]) | IC50 (EZH2 Mutant Y641N; [2]) | Ki (WT EZH2; [3]) | IC50 (EZH2 Mutant Y641N; [4]) |
| --- | --- | --- | --- | --- |
| Cc1cc(C)c(CN2CCc3c(Cl)cc(C(CO)N4CCC(F)(F)C4)c(Cl)c3C2=O)c(=O)[nH]1 (single isomer, unassigned) [Example 67] | 1.6 µM | 19.5 µM | – | – |
| Cc1cc(C)c(CN2CCc3ccc(C(CO)C4CCOC4)c(Cl)c3C2=O)c(=O)[nH]1 (single isomer, unassigned) [Example 98] | 1.22 µM | 8.72 µM | – | – |
| COC(c1cc(Cl)c2c(c1Cl)C(=O)N(Cc1c(C)cc(C)[nH]c1=O)CC2)C1CC(=O)N(C)C1 (single isomer, unassigned) [Example 180] | 0.39 µM | 2.16 µM | – | – |
| Cc1cc(C)c(CN2CCc3c(Cl)cc([C@H](CO)[C@@H]4CCCO4)c(Cl)c3C2=O)c(=O)[nH]1 [Example 12, 5,8-dichloro-2-[(4,6-dimethyl-2-oxo-1,2-dihydropyridin-3-yl)methyl]-7-{(1R)-2-hydroxy-1-[(2S)-tetrahydrofuran-2-yl]ethyl}-3,4-dihydroisoquinolin-1(2H)-one] | 0.004 µM | 0.016 µM | – | – |
| CCOC(c1cc(Cl)c2c(c1Cl)C(=O)N(Cc1c(C)cc(C)[nH]c1=O)CC2)C1CS(=O)(=O)C1 (single isomer, unassigned) [Example 158] | – | – | 0.578 µM | 5.13 µM |
| Cc1cc(C)c(CN2CCc3c(Cl)cc(C(F)C4CCN(C(=O)CO)CC4)c(Cl)c3C2=O)c(=O)[nH]1 (single isomer, unassigned; (+)) [Example 8, (+)-5,8-dichloro-2-[(4,6-dimethyl-2-oxo-1,2-dihydropyridin-3-yl)methyl]-7-{fluoro[1-(hydroxyacetyl)piperidin-4-yl]methyl}-3,4-dihydroisoquinolin-1(2H)-one] | 0.652 µM | 5.02 µM | – | – |
| COC(C(C)=O)c1cc(Cl)c2c(c1Cl)C(=O)N(Cc1c(C)cc(C)[nH]c1=O)CC2 (racemic) [Example 49] | 0.215 µM | 0.996 µM | – | – |
| Cc1cc(C)c(CN2CCc3c(Cl)cc(C(CO)O[C@@H]4CCOC4)c(Cl)c3C2=O)c(=O)[nH]1 (single isomer, unassigned) [Example 103] | 0.052 µM | 0.32 µM | – | – |
| Cc1cc(OC(F)F)c(CN2CCc3c(Cl)cc(C(CO)C4CCOC4)c(Cl)c3C2=O)c(=O)[nH]1 (single isomer, unassigned) [Example 94] | 0.323 µM | 4.87 µM | – | – |
| CC(=C1CN(C(=O)CO)C1)c1cc(Cl)c2c(c1Cl)C(=O)N(Cc1c(C)cc(C)[nH]c1=O)CC2 [Example 75, 5,8-dichloro-2-[(4,6-dimethyl-2-oxo-1,2-dihydropyridin-3-yl)methyl]-7-{1-[1-(hydroxyacetyl)azetidin-3-ylidene]ethyl}-3,4-dihydroisoquinolin-1(2H)-one] | 0.002 µM | 0.02 µM | – | – |
| COC(c1cc(Cl)c2c(c1Cl)C(=O)N(Cc1c(C)cc(C)[nH]c1=O)CC2)C1CCOC1 (single isomer, unassigned) [Example 160] | – | – | 0.021 µM | 0.086 µM |
| COC(c1cc(Cl)c2c(c1Cl)C(=O)N(Cc1c(C)cc(C)[nH]c1=O)CC2)C1CCN(C)CC1 (single isomer, unassigned) [Example 137] | – | – | 0.133 µM | 1.17 µM |
| COC(c1cc(Cl)c2c(c1Cl)C(=O)N(Cc1c(C)cc(C)[nH]c1=O)CC2)C1CN(C)C1 (single isomer, unassigned) [Example 175] | 0.085 µM | 1 µM | – | – |
| COC(c1cc(Cl)c2c(c1Cl)C(=O)N(Cc1c(C)cc(C)[nH]c1=O)CC2)C1CCN(C)CC1 (single isomer, unassigned) [Example 136] | – | – | 0.0001 µM | 0.003 µM |
| COC(c1cc(Br)c2c(c1Cl)C(=O)N(Cc1c(C)cc(C)[nH]c1=O)CC2)C1CN(C(=O)CO)C1 (single isomer, unassigned) [Example 138] | 0.046 µM | 0.249 µM | – | – |
| COC(c1cc(Cl)c2c(c1Cl)C(=O)N(Cc1c(C)cc(C)[nH]c1=O)CC2)C1CCN(C(=O)CO)C1 (stereo not drawn) [Example 113] | 0.0008 µM | 0.005 µM | – | – |
| COc1cc(C)[nH]c(=O)c1CN1CCc2c(C)cc([C@@H](OC)[C@@H]3CCOC3)c(Cl)c2C1=O (single isomer, unassigned) [Example 85, 8-chloro-2-[(4-methoxy-6-methyl-2-oxo-1,2-dihydropyridin-3-yl)methyl]-7-{(S*)-methoxy[(3R*)-tetrahydrofuran-3-yl]methyl}-5-methyl-3,4-dihydroisoquinolin-1(2H)-one] | 0.052 µM | 0.238 µM | – | – |
| COC(c1cc(Cl)c2c(c1Cl)C(=O)N(Cc1c(C)cc(C)[nH]c1=O)CC2)C1CCN(C2COC2)CC1 (single isomer, unassigned) [Example 156] | – | – | 0.375 µM | 1.71 µM |
| COC(c1cc(Br)c2c(c1Cl)C(=O)N(Cc1c(C)cc(C)[nH]c1=O)CC2)C1CCN(C)CC1 (single isomer, unassigned) [Example 147] | 0.128 µM | 0.543 µM | – | – |

The remaining molecules from weak to strong by Ki (WT EZH2; [1]), led by results:

| Ki (WT EZH2; [1]) | IC50 (EZH2 Mutant Y641N; [2]) | Ki (WT EZH2; [3]) | IC50 (EZH2 Mutant Y641N; [4]) | Structure (SMILES) |
| --- | --- | --- | --- | --- |
| 0.016 µM | 0.206 µM | – | – | COC(c1cc(Cl)c2c(c1Cl)C(=O)N(Cc1c(C)cc(C)[nH]c1=O)CC2)C1CN(C(=O)[C@H](C)O)C1 (single isomer, unassigned) [Example 173] |
| 0.015 µM | 0.1 µM | – | – | COc1cc(C)[nH]c(=O)c1CN1CCc2c(Cl)cc(C(OC)C3CCN(C=O)CC3)c(Cl)c2C1=O (single isomer, unassigned) [Example 119] |
| 0.003 µM | 0.02 µM | – | – | COC(c1cc(C)c2c(c1Cl)C(=O)N(Cc1c(C)cc(C)[nH]c1=O)CC2)C1CNC1 (racemic) [Example 178] |
| 0.003 µM | 0.027 µM | – | – | Cc1cc(C)c(CN2CCc3ccc(C(CO)C4CCOC4)c(Cl)c3C2=O)c(=O)[nH]1 (single isomer, unassigned) [Example 97] |
| 0.001 µM | 0.012 µM | – | – | Cc1cc(OC(F)F)c(CN2CCc3c(Cl)cc(C(CO)C4CCOC4)c(Cl)c3C2=O)c(=O)[nH]1 (single isomer, unassigned) [Example 95] |
| 0.001 µM | 0.01 µM | – | – | Cc1cc(C)c(CN2CCc3c(C)cc(C(C)C4CN(S(C)(=O)=O)C4)c(Cl)c3C2=O)c(=O)[nH]1 (single isomer, unassigned) [Example 193] |
| 0.001 µM | 0.013 µM | – | – | COC(c1ccc2c(c1Cl)C(=O)N(Cc1c(C)cc(C)[nH]c1=O)CC2)C1CCOC1 (single isomer, unassigned) [Example 132] |
| 0.001 µM | 0.012 µM | – | – | Cc1cc(C)c(CN2CCc3c(Cl)cc(C(C)C4CN(S(C)(=O)=O)C4)c(Cl)c3C2=O)c(=O)[nH]1 (single isomer, unassigned) [Example 185] |
| 0.0008 µM | 0.014 µM | – | – | COC(c1cc(Cl)c2c(c1Cl)C(=O)N(Cc1c(C)cc(C)[nH]c1=O)CC2)C1CN(C(=O)[C@@H](C)O)C1 (single isomer, unassigned) [Example 170] |
| 0.0006 µM | 0.005 µM | – | – | Cc1cc(C)c(CN2CCc3c(Cl)cc(C(C)C4CN(C(=O)CO)C4)c(Cl)c3C2=O)c(=O)[nH]1 (single isomer, unassigned) [Example 184] |
| 0.0002 µM | 0.005 µM | – | – | COc1cc(C)[nH]c(=O)c1CN1CCc2c(C)cc(C(OC)C3COC3)c(Cl)c2C1=O (single isomer, unassigned) [Example 144] |
